Source: PubChem BioAssay (NCI)
Where “and” joins values, the source holds several entries; their conditions need not be identical. Identical values can stand only once.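 Cultured in 96-well plates, cells were exposed to test compound for 48 hours across five concentrations. GI50 is the concentration that inhibits growth by half. TGI: total growth inhibition.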

Assays:
Test in all cases: NCI-60 cell line screen, 48 h
A498 renal = test system: A498 renal
M14 melanoma = test system: M14 melanoma
MCF7 breast = test system: MCF7 breast
NCI-H226 lung = test system: NCI-H226 lung
NCI-H460 lung = test system: NCI-H460 lung
SF-539 CNS = test system: SF-539 CNS
SK-MEL-2 melanoma = test system: SK-MEL-2 melanoma
SK-MEL-5 melanoma = test system: SK-MEL-5 melanoma
SR leukemia = test system: SR leukemia
T-47D breast = test system: T-47D breast

SMILES | TGI (A498 renal) | TGI (M14 melanoma) | TGI (MCF7 breast) | TGI (NCI-H226 lung) | TGI (NCI-H460 lung) | TGI (SF-539 CNS) | TGI (SK-MEL-2 melanoma) | TGI (SK-MEL-5 melanoma) | TGI (SR leukemia) | TGI (T-47D breast) | GI50 (A498 renal) | GI50 (M14 melanoma) | GI50 (MCF7 breast) | GI50 (NCI-H226 lung) | GI50 (NCI-H460 lung) | GI50 (SF-539 CNS) | GI50 (SK-MEL-2 melanoma) | GI50 (SK-MEL-5 melanoma) | GI50 (SR leukemia) | GI50 (T-47D breast)
Cc1ccc(S(=O)(=O)NC(=O)Nc2ncn[nH]2)cc1 | > 100 µM | > 100 µM | > 100 µM | > 100 µM | > 100 µM | > 100 µM | > 100 µM | > 100 µM | > 100 µM | > 100 µM |  |  |  |  |  |  |  |  |  | 
Nc1ncnc2occ(-c3ccc(NC(=O)Nc4cccc(C(F)(F)F)c4)cc3)c12 | 3.22 µM | 9.19 µM | 19.3 µM | 6.1 µM | 9.3 µM | 7.1 µM | 11.6 µM | 6.21 µM | 8.59 µM | 15 µM | 0.422 µM | 3.2 µM | 2.34 µM | 0.367 µM | 3.46 µM | 0.702 µM | 5.39 µM | 3.06 µM | 0.957 µM | 5.22 µM
O=C1/C(=C/c2ccccc2)CN(C(=O)/C=C/c2ccccc2)C/C1=C\c1ccccc1 | 92 µM | 12.8 µM | 3.83 µM | 60.6 µM | 39.3 µM | 24.8 µM | 52 µM | > 35 µM | 4.64 µM | 15.1 µM |  |  |  |  |  |  |  |  |  | 
CC(=O)OC1CCC2(C)C(=CCC3C2CCC2(C)C3CC3OC4(CCC(C)CN4)C(C)C32)C1 (stereo not given) | > 100 µM | > 100 µM | > 100 µM | > 100 µM | > 100 µM | > 100 µM | > 100 µM | > 100 µM | > 100 µM | > 100 µM |  |  |  |  |  |  |  |  |  | 
CC(=O)OC1C(C)OC(Oc2c(-c3ccc(O)cc3)oc3cc(O)cc(O)c3c2=O)C(O)C1OC(C)=O (stereo not given) | > 100 µM | > 100 µM | > 100 µM | > 100 µM | > 100 µM | > 100 µM | 49.3 µM | 39.9 µM | 65 µM | 68.6 µM | > 52.4 µM | 33.5 µM | 28.3 µM | 36.9 µM | 32.5 µM | 29.1 µM | 21.1 µM | 17.4 µM | 25 µM | 23.4 µM
Nc1ccccc1SC(CC(=O)c1ccccc1)c1c(Cl)cccc1Cl (stereo not given) | 24 µM | 12.9 µM | 13.1 µM | 40.6 µM | 17.6 µM | 20.5 µM | 18.2 µM | 21.2 µM | 5.79 µM | 13.4 µM | 11.2 µM | 3.25 µM | 1.25 µM | 14.9 µM | 4.59 µM | 6.17 µM | 6.33 µM | 9.17 µM | 1.45 µM | 2.81 µM
COc1ccc(/C(=N/O)c2cc(F)c(F)c(OC)c2F)cc1O | > 100 µM | > 100 µM | > 100 µM | > 100 µM | > 100 µM | 5.27 µM | > 100 µM | 17.3 µM | 34.1 µM | 72.4 µM | 3.79 µM | 0.344 µM | 0.329 µM | 15.8 µM | 0.402 µM | 0.427 µM | 0.421 µM | 0.599 µM | 0.241 µM | 0.53 µM
COc1cccc(C2=C(c3cn(C)c4c(C)cccc34)C(=O)NC2=O)c1 | > 21.9 µM | > 25 µM | > 25 µM | > 25 µM | > 25 µM | > 25 µM | > 25 µM | > 25 µM | > 25 µM | > 25 µM | 5.89 µM | > 25 µM | 16.5 µM | 19.4 µM | > 25 µM | > 25 µM | > 16.9 µM | 21.5 µM | > 19.6 µM | > 20.2 µM
O=C1c2c[n+](Cc3ccccc3)ccc2-c2nc3ccccc3c3ccnc1c23 | 1.97 µM | 0.969 µM | 0.89 µM | 3.07 µM | 0.499 µM | 1.17 µM | 1.77 µM | 1.04 µM | 3.6 µM | 1.7 µM | 0.532 µM | 0.208 µM | 0.163 µM | 0.537 µM | 0.0673 µM | 0.545 µM | 0.646 µM | 0.439 µM | 0.066 µM | 0.648 µM
O=[N+]([O-])c1cc2c(ccc3ccccc32)o1 | 0.277 µM | 0.472 µM | 3.01 µM | 4.22 µM | 1.06 µM | 2.97 µM | 0.416 µM | 0.296 µM | > 39.9 µM | 31.9 µM | 0.127 µM | 0.173 µM | 0.212 µM | 1.27 µM | 0.276 µM | 0.617 µM | 0.202 µM | 0.141 µM | 0.346 µM | 1.57 µM
O=C(Nc1ccc(Br)cc1)c1cc(Br)ccc1O | 0.841 µM and 1.82 µM | 7.07 µM and 18.2 µM | 3.37 µM and 7.8 µM | 4.52 µM and 4.03 µM | 4.96 µM and 10.7 µM | 13 µM and 10.1 µM | 1.25 µM and 5 µM | 1.16 µM and 1.56 µM | 3.23 µM | 5.02 µM and 7.42 µM | 0.219 µM and 0.358 µM | 1 µM and 2.13 µM | 0.412 µM and 1.29 µM | 0.747 µM and 0.729 µM | 0.389 µM and 0.617 µM | 0.647 µM and 0.7 µM | 0.278 µM and 1.74 µM | 0.304 µM and 0.416 µM | 0.291 µM and 0.554 µM | 0.337 µM and 0.604 µM
O=C1C=CC(=O)N1c1ccc2ccccc2c1 | 27.3 µM | 28.4 µM | 41.4 µM | 33.3 µM | 37.9 µM | 33.9 µM | 35.3 µM | 30.4 µM | 7.33 µM | 14.7 µM | 12.7 µM | 14.5 µM | 16.6 µM | 16.8 µM | 17.5 µM | 17.7 µM | 17.9 µM | 16.4 µM | 2.6 µM | 3.73 µM
Cc1ccc(-c2csc3ncnc(Nc4cccc(O)c4)c23)cc1 | 66.5 µM | 37.3 µM | > 100 µM | > 100 µM | 76.3 µM | > 100 µM | 62.4 µM | 51.2 µM | 77.5 µM | > 100 µM | 30.8 µM | 17.9 µM | 41.6 µM | 38.1 µM | 29.2 µM | 37.7 µM | 22.4 µM | 22.8 µM | 15.2 µM | 44 µM
O=C(NCCc1nccs1)c1cnc2c(S)cccc2c1 | 16.7 µM | 38.6 µM | 37.5 µM | 21.4 µM | 11.4 µM | 42.7 µM | 26.5 µM | 16 µM | > 100 µM | 62.6 µM | 4.59 µM | 3.5 µM | 1.02 µM | 5.7 µM | 0.685 µM | 4.17 µM | 3.57 µM | 3.2 µM | 0.677 µM | 2.37 µM
COc1cccc2c1C(=O)c1c(O)c3c(c(O)c1C2=O)C[C@@](O)(C(=O)CO)C[C@@H]3OC1CC2C(OCN2CN2COC3C(C)OC(O[C@H]4C[C@](O)(C(=O)CO)Cc5c(O)c6c(c(O)c54)C(=O)c4c(OC)cccc4C6=O)CC32)C(C)O1 (stereo not given in full) | 0.0821 µM | 0.0405 µM | 0.12 µM | 0.0584 µM | 0.0864 µM | 0.0638 µM | 0.0591 µM | 0.0492 µM | 0.00476 µM | 0.0174 µM | 0.0196 µM | 0.0067 µM | 0.00264 µM | 0.00981 µM | 0.000207 µM | 0.0112 µM | 0.0179 µM | 0.0143 µM | 0.000289 µM | 0.00185 µM
